According to US4528380A, “5-(1-Propyl)n-butyl tetrazoles” (Delalande S.A., priority 1981, dated 1985):

Tests used:
[1] = tested on: mortality induced by bicucullin; assay: Protection against mortality induced by intravenous bicucullin (anti-convulsive activity); assay type: in vivo; conditions: Mus musculus, ip; mice, compound i.p.; intravenous injection of 0.7 mg/kg of bicucullin; read-out: ED 50 against mortality induced by bicucullin
[2] = Acute toxicity, intraperitoneal, method of Miller and Tainter; conditions: mouse, in vivo, ip, mice, read-out: Acute toxicity LD 50
Method: Acute toxicity is assessed intraperitoneally on mice according to the method of Miller and Tainter described in Proc. Soc. Exp. Biol. Med. 57, 261, (1944).

Row | Structure (SMILES) | ED50 [1] [mg/kg] | LD50 [2] [mg/kg]
1 | CCC(C)(C)c1nn[nH]n1 [compound 1] | 100 | > 400
2 | CCCCC(C)(CC)c1nn[nH]n1 (centres unmarked) [compound 3] | 120 | 320
3 | CCCC(CCC)(CCC)c1nn[nH]n1 [compound 5] | 44 | 280
4 | CCCC(CCC)c1nn[nH]n1 [compound 6, [1-(1-n propyl)nbutyl] tetrazole] | 135 | > 400
